Data as given in patent US7892767B2, “Phosphospecific chemokine receptor antibodies” (Washington University in St. Louis, priority 2005, dated 2011).

Assays:
[1] = system: PDE4A-expressing U87 cells; experiment: Viable cell number, PDE4A-expressing U87 cells; assay type: cell-based, human; conditions: CXCL12 1 μg/ml, AMD 3465 2.5 μg/ml, Rolipram 200 μM
Procedure: (§1) PDE4A expression. U87 and Daoy cells (15,000 cells) were transiently transfected for 48 h with a plasmid encoding a transgene for the tet-off transactivator (tTA) alone (kind gift from Dr. Louis Muglia, Washington University School of Medicine, St. Louis, Mo.), a plasmid containing a transgene for tet-off regulated expression of phosphodiesterase 4A (PDE4A) alone (kind gift from Dr. James Cherry, Boston University, Boston, Mass.), or a combination of both plasmids, using lipofectamine (Invitrogen) according to the manufacturer's instructions. Plasmid DNA (2 μg) was mixed with lipofectamine (5 μl) per 35 mm^2 dish. Transfection proceeded for 9 hours prior to exchanging transfection media for αMEM supplemented with 10% FCS.

Daoy xenografts [2] = experiment: cAMP in xenograft tumor tissue by ELISA; assay type: in vivo, mouse; conditions: same treatment paradigms as growth studies, EGFP-luciferase xenografts
Procedure: cAMP measurement in tumor tissue. EGFP-expressing tumor tissue was removed under direct fluorescence microscopy and frozen in liquid nitrogen. Frozen tissue was weighed and homogenized with 10 volumes of 10% ice-cold trichloroacetic acid, then centrifuged for 10 min at 4000 rpm to remove precipitate. The supernatant was washed three times with 8 volumes of water-saturated ether. The aqueous phase was dried down and resuspended in cAMP assay buffer.
(§2) Determination of cAMP concentration. Competitive immunoassay for cAMP concentration was performed exactly as directed by the manufacturer. Absorbance at 405 nm was measured and cAMP concentrations were determined by calculation based on a standard curve. Protein concentrations were measured by colormetric assay (Bio-Rad, Hercules, Calif.) according to the manufacturer's directions. cAMP values were normalized to protein for each sample individually.
To ascertain whether the in vivo anti-tumor effects of Rolipram and AMD 3465 were correlated with increases in intratumoral cAMP, we repeated the treatment paradigms with Daoy xenografts that had been engineered to express both enhanced green fluorescent protein (EGFP) and firefly luciferase. […] Tumor tissue was easily visualized in situ under direct fluorescence microscopy (FIG. 20A). Cyclic AMP was extracted from GFP positive tissue, and cAMP levels were measured by ELISA.

[3] = system: PDE4A-expressing Daoy cells; experiment: Viable cell number, PDE4A-expressing Daoy cells; assay type: cell-based, human; conditions: CXCL12 1 μg/ml, AMD 3465 2.5 μg/ml, Rolipram 200 μM
Procedure: as §1

[4] = system: Daoy medulloblastoma cells; experiment: Viable cell number by trypan blue exclusion, Daoy cells; assay type: cell-based, human; conditions: Rolipram 200 μM, AMD 3465 2.5 μg/ml; for effect on CXCL12 induced growth: with CXCL12 1 μg/ml, Forskolin 10 μM
Procedure: (§3) Brain tumor cell cultures. Cells were cultured in αMEM (Invitrogen, Carlsbad, Calif.) supplemented with 10% FCS (Biomedia, Foster City, Calif.) in the presence of penicillin streptomycin at 37° C. with 5% CO2.
(§4) Growth factor and drug treatment. Following serum-starvation for 24 hours, astrocytes, granule cells, U87 cells and Daoy cells, were treated with 1 μg/ml CXCL12 (PeproTech), […] AMD3465 (kind gift from Simon Fricker, AnorMED, Langley, BC, Canada) (200 μM Rolipram (Sigma), or 10 μM Forskolin (Sigma) as indicated.

U87 glioblastoma cells [5] = experiment: Viable cell number by trypan blue exclusion, U87 cells; assay type: cell-based, human; conditions: Rolipram 200 μM, AMD 3465 2.5 μg/ml; for effect on CXCL12 induced growth: with CXCL12 1 μg/ml, Forskolin 10 μM
Procedure: as §3, §4

U87 GBM xenografts = experiment: Intracranial U87 xenograft growth by bioluminescence imaging; assay type: in vivo, mouse
[6] = system: Daoy medulloblastoma cells; experiment: Intracellular cAMP by ELISA, Daoy medulloblastoma cells; assay type: cell-based, human
Procedure: as §4
(§5) cAMP measurement in cell culture. cAMP concentration was measured using a Correlated-EIA™. Enzyme Immunoassay Kit (Assay Designs Inc. MI) according to the manufacturer's instructions. Briefly, U87 or Daoy cells were serum-starved for 24 hours, and treated with CXCL12 (1 μg/ml), Rolipram (200 μM), or forskolin (10 μM). Cells were lysed in 0.1M HCL and particulate matter was removed by centrifugation at >600×g for 10 min. The supernatants were dried down and resuspended in assay buffer.
as §2

U87 glioblastoma cells [7] = experiment: Intracellular cAMP by ELISA, U87 glioblastoma cells; assay type: cell-based, human
Procedure: as §4, §5, §2

CXCR4 = CXCR4 (Homo sapiens, UniProt P61073); conditions: compared with AMD 3100, reference (84); cited from earlier work
Daoy xenografts [8] = experiment: Intracranial Daoy xenograft growth by bioluminescence imaging; assay type: in vivo, mouse
[9] = added to chemotherapy and radiation therapy; decreased consciousness and increased seizure activity; reference (109); cited from earlier work
[10] = in vivo; cited from earlier work
[11] = Tolerability in xenograft-bearing mice; assay type: in vivo, mouse; conditions: 5 μg/g/day in the drinking water
[12] = continuous subcutaneous infusion 50 μg/day (2.5 mg/kg/day) for 5 weeks
[13] = AMD 3465 2.5 μg/ml coadministered with CXCL12 1 μg/ml
[14] = 5 μg/g/day in the drinking water, from two weeks after tumor cell injection
[15] = Rolipram 200 μM or Forskolin 10 μM, not abrogated by CXCL12

Chain of CXCR4 (P61073 whole entry, species assumed): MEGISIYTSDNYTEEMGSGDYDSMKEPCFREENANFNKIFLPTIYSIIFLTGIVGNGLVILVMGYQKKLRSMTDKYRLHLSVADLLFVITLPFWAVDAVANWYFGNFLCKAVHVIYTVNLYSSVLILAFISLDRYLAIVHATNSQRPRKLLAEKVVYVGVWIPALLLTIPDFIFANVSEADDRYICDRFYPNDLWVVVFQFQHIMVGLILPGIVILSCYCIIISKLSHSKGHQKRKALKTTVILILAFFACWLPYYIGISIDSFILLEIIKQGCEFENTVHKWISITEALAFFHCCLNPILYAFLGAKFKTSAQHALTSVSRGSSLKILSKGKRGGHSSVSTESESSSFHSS

c1ccc(CNCc2ccc(CN3CCCNCCNCCCNCC3)cc2)nc1 [AMD 3465]
effect on cell number [1]: no effect
amount of cAMP within tumor tissue (Daoy xenografts [2]): significant increase
effect on cell number [3]: no effect
effect on cell number alone [4]: no significant effect
effect on CXCL12 induced growth [4]: completely blocked
effect on cell number alone (U87 glioblastoma cells [5]): no significant effect
effect on CXCL12 induced growth (U87 glioblastoma cells [5]): completely blocked
inhibition of xenograft growth as compared to controls (U87 GBM xenografts; [12]): 80%
effect on cAMP levels alone ([6]; AMD 3465 2.5 μg/ml): little to no effect
CXCL12-induced suppression of cAMP [6, 13]: blocked
effect on cAMP levels alone (U87 glioblastoma cells [7]; AMD 3465 2.5 μg/ml): little to no effect
CXCL12-induced suppression of cAMP (U87 glioblastoma cells [7]; [13]): blocked
affinity for CXCR4 (CXCR4): greater affinity
inhibition of xenograft growth as compared to controls (Daoy xenografts [8]; [12]): 85%

CC(=O)CCCCn1c(=O)c2c(ncn2C)n(C)c1=O [Pentoxiphyllin]
toxicity [9]: excessive toxicity

COc1ccc(C2CNC(=O)C2)cc1OC1CCCC1 (centres unmarked) [Rolipram]
effect on cell number [1]: growth inhibitory effect
amount of cAMP within tumor tissue (Daoy xenografts [2]): significant increase
effect on cell number [3]: growth inhibitory effect
blood brain barrier passage [10]: crosses an intact blood brain barrier
animal weights compared to the control group ([11]; data not shown): better maintained
appearance of treated animals ([11]; throughout the treatment period): appeared well
effect on cell number alone [4]: little to no effect
effect on CXCL12 induced growth [4]: completely blocked
effect on cell number alone (U87 glioblastoma cells [5]): little to no effect
effect on CXCL12 induced growth (U87 glioblastoma cells [5]): completely blocked
inhibition of xenograft growth (U87 GBM xenografts; [14]): 96%
change in intracellular cAMP [6, 15]: predictable increases
change in intracellular cAMP (U87 glioblastoma cells [7]; [15]): predictable increases
inhibition of xenograft growth (Daoy xenografts [8]; [14]): 58%
